Tested on: bacteria
Assay: Residual efficacy on bacterially contaminated surfaces, duration of effect
Assay type: cell-based
Details: "as is"
Method: Table 1 tabulates results of a residual efficacy test done on the product of the invention (sample number RT14) by the South African Bureau of Standards (SABS) using the European surface test method (1993), to determine the residual efficacy of the sample on bacterially contaminated surfaces.
The surfaces of stainless steel discs (2 cm^2) were seeded with a 0.1 ml bacterial suspension containing 10^7 bacterial cells/ml and thereafter dried at 37° C. for one hour. The 0.1 ml RT14 sample was dropped onto the dried disc, ensuring that the disc was totally covered. After 24 hours, 48 hours, 7 days, 14 days and 30 days respectively, the surfaces were again seeded with a bacterial suspension. After a minute contact time, the stainless steel discs were placed in conical flasks containing 10m1 of a neutralization medium to neutralize the RT14 and the flasks were shaken to dislodge the cells from the discs. Tenfold dilutions of the flask contents were placed onto sterile petri dishes. Nutrient agar was poured onto the petri dishes, mixed with contents, and incubated at 37° C. for 2 days. Colony-forming bacterial cells were counted. Untreated stainless steel discs were used as controls.

O=CCCCC=O [glutaraldehyde]
duration of effectiveness on bacteria: up to 10 hours

— patent US20100143428A1, “A STABLE GLUTARALDEHYDE COMPLEX” (priority 2006, published 2010)
